For 14 compounds, r left shift, EC50 and h left shift results are on record in patent EP2650284A1, “Heterocyclic derivatives as metabotropic glutamate receptor modulators” (Merz Pharma GmbH & Co. KGaA, priority 2012, dated 2013).

One test deals with T1, mGluR5 receptors (Rattus norvegicus, UniProt P31424).
T1 construct: Primary astrocyte cultures are prepared from cortices of newborn rats; endogenous in cells; host or cells: primary cortical astrocytes from Sprague-Dawley rat pups (2-4 d old)
Nature of the test: Cytosolic calcium studies with astrocytes (FLIPR), functional assay of mGluR5 receptors. In kind it is cell-based. To be noted: for r left shift: Table A1, left shift of quisqualate EC50 in the presence and absence of 10 µM modulator; for EC50: Table A1, positive modulators, fixed concentration of quisqualate (normally 10-30 nM), read-out: rEC50. The method, then: Primary astrocyte cultures are prepared from cortices of newborn rats as described by Booher and Sensenbrenner (1972, Neurobiology 2(3):97-105). Briefly, Sprague-Dawley rat pups (2 - 4 d old) are decapitated and neocortices are dissected, disintegrated with a nylon filter (pore size 80 µm) and carefully triturated. The cell suspension is plated on poly-D-lysine pre-coated flasks (Costar, Netherlands) and cultivated in Dulbecco's Modified Eagle's Medium (DMEM, Invitrogen, Germany) supplemented with 10% foetal calf serum (FCS, Sigma, Germany), 4 mM glutamine and 50 µg/ml gentamycin (both Biochrom, Germany) at 37°C in a humidified atmosphere of 5% CO2/ 95% air for 7 days with exchanging the medium at day 2 and 6.
After 7 days in vitro (DIV), cells are shaken overnight at 250 rpm to remove oligodendrocytes and microglia. The next day, astrocytes are rinsed twice with CMF-PBS (calcium- and magnesium-free phosphate buffered saline, Biochrom, Germany), trypsinized and subplated on poly-D-lysine pre-coated 96-well plates (Greiner, Germany) at a density of 40,000 cells/well. 24 h after establishing the secondary culture the astrocytes are rinsed with PBS^++ (phosphate buffered saline, Biochrom, Germany) and fed with astrocyte-defined medium (ADM) consisting of DMEM containing 1x G5-supplement (Invitrogen, Germany), 0.5 µg/ml heparan sulfate, and 1.5 µg/ml fibronectin (both Sigma, Germany) (Miller et al., (1993) Brain Res. 618(1):175-8). 3 days later the medium is exchanged and the cells incubated for another 2-3 days, so that at the time of experiments astrocytes are 14-15 DIV.
The increase of cytosolic calcium after stimulation with the mGluR5 agonist L-quisqualate is measured using a fluorometric imaging plate reader (FLIPR) and the Ca-Kit (both Molecular Devices). Prior to addition of agonist or antagonist the medium is aspirated and cells are loaded for 2 h at RT with 150 µl of loading buffer consisting of Ca-sensitive dye reconstituted in sodium chloride (123 mM), potassium chloride (5.4 mM), magnesium chloride (0.8 mM), calcium chloride (1.8 mM), D-glucose (15 mM), and HEPES (20 mM), pH 7.3. Subsequently, plates are transferred to FLIPR to detect calcium increase with the addition of L-quisqualate (100 nM) measured as relative fluorescence units (RFU). If antagonists are tested, these compounds are pre-incubated for 10 minutes at RT before addition of the respective agonist.
For positive modulators, concentration-response curves for quisqualate are performed in the presence and absence of 10 µM modulator to determine the extent of potentiation / agonist potency increase. Thereafter, concentration-response curves for the positive modulator are performed in the presence of a fixed concentration of quisqualate showing the biggest window for potentiation (normally 10-30 nM).
(§1) The fluorescence signal increase after addition of agonist reflects the increase of cytosolic calcium. Inconsistencies in the amount of cells per well are normalised by using the spatial uniformity correction of the FLIPR operating software Screenworks. The mean of replicated temporal data (n=3-5) is calculated and used for graphical representation. For the evaluation of the pharmacology, the calcium changes in response to different concentrations of agonist or antagonist are determined using a maximum minus minimum (MaxMin) calculation.
(§2) All responses (RFU-values) are determined as percentage of control (= maximum response). EC50 and IC50 are calculated according the logistic equation using XLFit (IDBS, UK) or Prism 4.0 (GraphPad Software, USA). The compounds of the present invention have a potency (EC50 or IC50) within a range of about 0.5 nM to about 100 µM. The left shifts for positive or slient allosteric modulators (PAMs or SAMs, respectively) are determined by comparison of EC50 values from agonist dose response curves run in the presence of 10 µM modulator or vehicle (Vanejevs et al., J. Med. Chem., 2008, 51, 634-647).

The target in test [1] is T2, human metabotropic glutamate receptor mGluR5 (Homo sapiens, UniProt P41594).
T2 construct: expressed in transfected cells; host or cells: CHO-K1 (h5CHO), IPTG-inducible
Nature of the test: Cytosolic calcium studies with stably transfected cells (h5CHO), functional assay of mGluR5 receptors. It is filed as cell-based. To be noted: Table A1; for h left shift: left shift of agonist EC50, dose response curves in the presence of 10 µM modulator or vehicle, h5CHO cells; for EC50: positive modulators, h5CHO cells preincubated with modulator, stimulated by an EC20 concentration of L-glutamate, read-out: hEC50. The method, then:
Chinese hamster ovary cells (CHO-K1 cells), stably transfected for inducible expression of a human metabotropic glutamate receptor mGluR5 to form a cell line called h5CHO, are seeded into black clear bottom 96 well plates at a density of 35.000 cells per well. The standard growth medium used (Dulbecco's modified Eagle Medium, DMEM plus L-proline) contains the appropriate inducer isopropyl-β-D-thiogalactopyranosid (IPTG) to achieve optimal receptor expression. One day after seeding the growth medium is exchanged for reconstituted Ca-Kit (Molecular Devices, USA) and incubated for one hour. Ca-Kit is reconstituted in an assay buffer containing 20 mM HEPES pH 7.4, glutamic-pyruvate transaminase, pyridoxal phosphate and sodium pyruvate in Hank's balanced salt solution (HBBS). Agonistic compounds to the receptor elicit increases in cytosolic calcium which can be measured as increases in fluorescence signals by use of a fluorescence imaging plate reader (Molecular Devices). To analyze their potency to negatively modulate the Ca-response test compounds, dissolved in a final DMSO concentration of 0.5%, are added on-line 5 minutes before the agonist to the receptor (L-quisqualic acid at a concentration giving ~80% of the maximal signal). EC50 values for positive allosteric modulators were determined by stimulating the cells which have been preincubated the modulators by an EC20 concentration of L-glutamate.
as §1, §2

T2 sequence (P41594 21-1212): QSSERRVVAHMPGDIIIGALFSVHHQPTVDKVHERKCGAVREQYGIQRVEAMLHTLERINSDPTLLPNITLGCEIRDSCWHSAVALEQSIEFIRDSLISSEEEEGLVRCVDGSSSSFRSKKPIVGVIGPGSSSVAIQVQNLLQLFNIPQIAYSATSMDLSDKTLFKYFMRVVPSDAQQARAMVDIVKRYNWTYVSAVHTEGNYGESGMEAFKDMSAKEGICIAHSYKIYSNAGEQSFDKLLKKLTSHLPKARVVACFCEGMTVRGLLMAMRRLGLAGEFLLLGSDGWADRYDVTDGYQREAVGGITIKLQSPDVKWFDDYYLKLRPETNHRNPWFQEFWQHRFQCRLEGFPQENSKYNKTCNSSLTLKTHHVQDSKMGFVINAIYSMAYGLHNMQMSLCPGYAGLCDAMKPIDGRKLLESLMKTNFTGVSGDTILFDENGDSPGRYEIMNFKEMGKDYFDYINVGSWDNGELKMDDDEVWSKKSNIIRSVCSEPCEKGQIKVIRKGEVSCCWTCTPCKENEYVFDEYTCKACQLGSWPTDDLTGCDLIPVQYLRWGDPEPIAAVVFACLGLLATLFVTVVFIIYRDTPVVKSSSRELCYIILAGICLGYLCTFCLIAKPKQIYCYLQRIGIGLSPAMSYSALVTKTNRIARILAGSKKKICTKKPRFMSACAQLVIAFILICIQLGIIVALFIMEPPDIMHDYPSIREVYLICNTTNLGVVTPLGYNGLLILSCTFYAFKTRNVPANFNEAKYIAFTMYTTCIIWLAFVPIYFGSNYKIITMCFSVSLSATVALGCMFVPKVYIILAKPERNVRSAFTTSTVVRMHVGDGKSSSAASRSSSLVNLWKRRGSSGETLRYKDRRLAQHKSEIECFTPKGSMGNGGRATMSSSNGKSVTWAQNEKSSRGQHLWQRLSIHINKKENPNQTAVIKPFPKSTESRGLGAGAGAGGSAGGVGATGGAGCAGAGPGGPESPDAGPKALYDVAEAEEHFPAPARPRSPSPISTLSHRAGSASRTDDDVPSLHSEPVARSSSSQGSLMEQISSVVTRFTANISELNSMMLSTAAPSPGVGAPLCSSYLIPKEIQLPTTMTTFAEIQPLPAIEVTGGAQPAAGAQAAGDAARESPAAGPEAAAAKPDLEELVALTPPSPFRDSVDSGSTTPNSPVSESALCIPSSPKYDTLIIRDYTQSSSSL
T1 sequence (P31424 21-1203): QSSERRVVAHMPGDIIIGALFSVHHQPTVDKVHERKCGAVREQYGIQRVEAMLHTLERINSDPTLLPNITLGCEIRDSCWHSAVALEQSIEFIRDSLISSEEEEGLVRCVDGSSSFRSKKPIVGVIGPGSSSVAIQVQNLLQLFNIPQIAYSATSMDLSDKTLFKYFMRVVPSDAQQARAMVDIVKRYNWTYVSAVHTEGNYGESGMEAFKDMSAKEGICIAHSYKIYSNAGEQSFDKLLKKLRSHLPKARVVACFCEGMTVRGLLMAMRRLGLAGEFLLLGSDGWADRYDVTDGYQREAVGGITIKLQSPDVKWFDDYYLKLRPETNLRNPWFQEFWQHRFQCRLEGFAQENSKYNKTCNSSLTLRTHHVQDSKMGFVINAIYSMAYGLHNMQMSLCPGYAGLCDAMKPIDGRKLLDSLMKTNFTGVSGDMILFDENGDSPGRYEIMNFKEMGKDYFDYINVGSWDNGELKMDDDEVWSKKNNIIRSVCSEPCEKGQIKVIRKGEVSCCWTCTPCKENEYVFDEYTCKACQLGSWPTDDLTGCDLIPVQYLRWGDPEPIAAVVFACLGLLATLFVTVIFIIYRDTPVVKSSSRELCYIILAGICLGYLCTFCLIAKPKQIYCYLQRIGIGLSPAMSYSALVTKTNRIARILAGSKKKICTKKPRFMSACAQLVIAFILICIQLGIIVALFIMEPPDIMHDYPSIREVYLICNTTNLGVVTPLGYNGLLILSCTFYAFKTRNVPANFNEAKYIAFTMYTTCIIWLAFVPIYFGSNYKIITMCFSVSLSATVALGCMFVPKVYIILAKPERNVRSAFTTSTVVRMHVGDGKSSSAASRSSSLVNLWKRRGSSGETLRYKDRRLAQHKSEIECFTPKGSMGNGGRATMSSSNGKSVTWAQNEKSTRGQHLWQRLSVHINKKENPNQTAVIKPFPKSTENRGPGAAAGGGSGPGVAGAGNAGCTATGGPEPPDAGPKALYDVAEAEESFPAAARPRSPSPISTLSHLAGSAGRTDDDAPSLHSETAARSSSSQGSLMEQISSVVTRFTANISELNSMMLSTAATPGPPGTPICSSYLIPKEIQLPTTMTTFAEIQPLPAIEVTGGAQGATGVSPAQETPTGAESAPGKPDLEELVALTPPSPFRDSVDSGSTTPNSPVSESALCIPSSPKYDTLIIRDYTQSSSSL

With `CCN1CCO[C@@H]2c3cc(C#Cc4ccccc4)cnc3CC[C@@H]21` (racemic) [Example 14, (rac)-cis-4-Ethyl-9-(phenylethynyl)-3,4,4a,5,6,10b-hexahydro-2H-[1,4]oxazino[2,3-f]quinoline], on mGluR5 receptors, the r left shift is on record as 3.6-fold and the EC50 stood at 580 nM. In test [1], the h left shift is 2.2-fold and the EC50 is 659 nM.

On to `CCCN1CCO[C@@H]2c3cc(C#Cc4ccccc4)cnc3CC[C@@H]21` (racemic) [Example 15, (rac)-cis-9-(Phenylethynyl)-4-propyl-3,4,4a,5,6,10b-hexahydro-2H-[1,4]oxazino[2,3-f]quinoline], for which, at mGluR5 receptors, the r left shift is 5.2-fold and the EC50 amounted to 175 nM. Besides, in test [1], the h left shift was 3.2-fold and the EC50 stood at 88.6 nM.

Regarding `CCCN1CCO[C@@H]2c3cc(C#Cc4ccccc4F)cnc3CC[C@@H]21` (racemic) [Example 18, (rac)-cis-9-((2-Fluorophenyl)ethynyl)-4-propyl-3,4,4a,5,6,10b-hexahydro-2H-[1,4]oxazino[2,3-f]quinoline], at mGluR5 receptors, the r left shift is 2.6-fold and the EC50 is 613 nM. Further, in test [1], the h left shift was 2.6-fold and the EC50 amounted to 247 nM.

In the case of `CCCN1CCO[C@@H]2c3cc(C#Cc4cccc(F)c4)cnc3CC[C@@H]21` (racemic) [Example 19, (rac)-cis-9-((3-Fluorophenyl)ethynyl)-4-propyl-3,4,4a,5,6,10b-hexahydro-2H-[1,4]oxazino[2,3-f]quinoline], on mGluR5 receptors, the r left shift is 2.6-fold and the EC50 turned out to be 323 nM. In test [1], the h left shift is listed as 1.9-fold and the EC50 worked out at 188 nM.

Take `CCCN1CCO[C@@H]2c3cc(C#Cc4ccc(F)cc4)cnc3CC[C@@H]21` (racemic) [Example 20, (rac)-cis-9-((4-Fluorophenyl)ethynyl)-4-propyl-3,4,4a,5,6,10b-hexahydro-2H-[1,4]oxazino[2,3-f]quinoline]: at mGluR5 receptors, the r left shift is given as 3.3-fold and the EC50 stood at 1350 nM. In test [1], the h left shift was 1.8-fold and the EC50 was 394 nM.

For `CCCN1CCO[C@H]2c3cc(C#Cc4ccccc4)cnc3CC[C@@H]21` (racemic) [Example 22, (rac)-trans-9-(Phenylethynyl)-4-propyl-3,4,4a,5,6,10b-hexahydro-2H-[1,4]oxazino[2,3-f]quinoline], the r left shift on mGluR5 receptors is listed as 1.8-fold. Further, in test [1], the h left shift was 2.2-fold and the EC50 was 1800 nM.

For the compound `CC(C)CN1CCO[C@@H]2c3cc(C#Cc4ccccc4)cnc3CC[C@@H]21` (racemic) [Example 23, (rac)-cis-4-Isobutyl-9-(phenylethynyl)-3,4,4a,5,6,10b-hexahydro-2H-[1,4]oxazino[2,3-f]quinoline], at mGluR5 receptors, the r left shift is given as 11.7-fold and the EC50 was determined as 132 nM. For the same compound, in test [1], the h left shift is on record as 5.3-fold and the EC50 came out at 4 nM.

Consider `FC(F)(F)CN1CCO[C@@H]2c3cc(C#Cc4ccccc4)cnc3CC[C@@H]21` (racemic) [Example 24, (rac)-cis-9-(Phenylethynyl)-4-(2,2,2-trifluoroethyl)-3,4,4a,5,6,10b-hexahydro-2H-[1,4]oxazino[2,3-f]quinoline], for which, at mGluR5 receptors, the r left shift is listed as 4.2-fold and the EC50 was determined as 134 nM. In test [1], the h left shift was 2.1-fold and the EC50 came out at 65.3 nM.

In the case of `FC(F)(F)CCN1CCO[C@@H]2c3cc(C#Cc4ccccc4)cnc3CC[C@@H]21` (racemic) [Example 25, (rac)-cis-9-(Phenylethynyl)-4-(3,3,3-trifluoropropyl)-3,4,4a,5,6,10b-hexahydro-2H-[1,4]oxazino[2,3-f]quinoline], on mGluR5 receptors, the r left shift is reported as 3.6-fold and the EC50 amounted to 136 nM. In test [1], the h left shift is given as 2.0-fold and the EC50 is 36.9 nM.

`COC(=O)N1CCO[C@@H]2c3cc(C#Cc4ccccc4)cnc3CC[C@@H]21` (racemic) [Example 26, (rac)-cis-Methyl 9-(phenylethynyl)-4a,5,6,10b-tetrahydro-2H-[1,4]oxazino[2,3-f]quinoline-4(3H)-carboxylate]: at mGluR5 receptors, the r left shift was 4.4-fold and the EC50 amounted to 599 nM. For the same compound, in test [1], the h left shift is 2.9-fold and the EC50 was determined as 958 nM.

Turning to `CN(C)C(=O)N1CCO[C@@H]2c3cc(C#Cc4ccccc4)cnc3CC[C@@H]21` (racemic) [Example 27, (rac)-cis-N,N-Dimethyl-9-(phenylethynyl)-4a,5,6,10b-tetrahydro-2H [1,4]oxazino[2,3-f]quinoline-4(3H)-carboxamide], at mGluR5 receptors, the r left shift is reported as 3.3-fold and the EC50 is 427 nM. Further, in test [1], the h left shift is 2.4-fold and the EC50 worked out at 884 nM.

On to `CC(C)(C)[S+]([O-])N1CCc2ncc(C#Cc3ccccc3)cc2C1` (racemic) [Example 37, (rac)-6-(tert-Butylsulfinyl)-3-(phenylethynyl)-5,6,7,8-tetrahydro-1,6-naphthyridine], for which, at mGluR5 receptors, the r left shift is on record as 3.3-fold and the EC50 was 508 nM. In addition, in test [1], the h left shift is reported as 2.5-fold and the EC50 worked out at 472 nM.

As for `COC(=O)N1C2CCC1c1cc(C#Cc3ccccc3)cnc1C2` (racemic) [Example 58, (rac)-Methyl 3-(phenylethynyl)-6,7,8,9-tetrahydro-5H-5,8-epiminocyclohepta[b]pyridine-10-carboxylate], at mGluR5 receptors, the r left shift is 3.9-fold and the EC50 was 113 nM. For the same compound, in test [1], the h left shift was 2.3-fold and the EC50 came to 201 nM.

Take `COC(=O)N1C2CCC1c1cc(C#Cc3cccc(F)c3)cnc1C2` (racemic) [Example 59, (rac)-Methyl 3-((3-fluorophenyl)ethynyl)-6,7,8,9-tetrahydro-5H-5,8-epiminocyclohepta[b]pyridine-10-carboxylate]: at mGluR5 receptors, the r left shift is given as 3.3-fold and the EC50 was 102 nM. For the same compound, in test [1], the h left shift is given as 1.8-fold and the EC50 was 277 nM.
